In patent publication US20180071298A1, “METHODS FOR TREATING ALZHEIMER'S DISEASE” (Reviva Pharmaceuticals, Inc., priority 2015, published 2018):

Key:
Human recombinant 5-HT1A = target: T1, Human recombinant 5-HT1A (Homo sapiens, UniProt P08908); assay: Serotonin 5HT1A radioligand binding assay; details: [3H]-8-OH-DPAT
T1 construct: expressed in transfected cells
T1 sequence (P08908 1-422): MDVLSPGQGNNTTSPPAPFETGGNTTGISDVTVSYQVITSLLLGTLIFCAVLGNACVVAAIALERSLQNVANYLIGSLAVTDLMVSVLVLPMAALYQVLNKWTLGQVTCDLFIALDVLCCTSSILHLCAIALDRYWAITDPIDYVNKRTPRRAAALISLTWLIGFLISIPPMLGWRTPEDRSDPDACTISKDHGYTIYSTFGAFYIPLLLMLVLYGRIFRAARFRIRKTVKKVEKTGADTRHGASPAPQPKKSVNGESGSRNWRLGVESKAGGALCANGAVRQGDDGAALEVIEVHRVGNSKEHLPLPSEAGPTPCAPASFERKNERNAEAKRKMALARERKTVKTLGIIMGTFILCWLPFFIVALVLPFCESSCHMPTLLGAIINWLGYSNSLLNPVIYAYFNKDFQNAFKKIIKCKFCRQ
Description: Serotonin, 5HT1A Radioligand Binding Assay
Receptor Source: Human recombinant 5-HT1A expressed mammalian cells
Radioligand: [^3H]-8-OH-DPAT (221 Ci/mmol)
Control Compound: 8-OH-DPAT

[1] = target: Human Cortex or Human recombinant 5-HT2A (Homo sapiens, UniProt P28223); assay: Serotonin 5HT2A radioligand binding assay; details: [3H]-Ketanserin
Human Cortex or Human recombinant 5-HT2A, sequence (P28223 whole entry): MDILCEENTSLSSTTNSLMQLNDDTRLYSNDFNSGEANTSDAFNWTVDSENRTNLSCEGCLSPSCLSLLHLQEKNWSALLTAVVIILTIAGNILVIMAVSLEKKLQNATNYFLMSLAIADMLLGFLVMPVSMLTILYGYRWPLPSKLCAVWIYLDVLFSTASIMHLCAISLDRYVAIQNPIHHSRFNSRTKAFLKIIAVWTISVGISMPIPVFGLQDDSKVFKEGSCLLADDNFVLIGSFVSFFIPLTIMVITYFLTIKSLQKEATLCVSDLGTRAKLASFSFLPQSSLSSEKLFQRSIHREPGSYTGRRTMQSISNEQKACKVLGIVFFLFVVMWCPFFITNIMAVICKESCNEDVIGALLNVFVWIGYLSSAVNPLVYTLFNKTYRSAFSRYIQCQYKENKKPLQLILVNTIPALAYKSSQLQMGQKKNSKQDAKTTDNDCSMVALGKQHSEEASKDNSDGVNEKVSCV

`O=C1COc2ccc(OCCCCN3CCN(c4cccc(Cl)c4Cl)CC3)cc2N1` [Compound A, 6-(4-(4-(2,3-dichlorophenyl)piperazin-1-yl)butoxy)-2H-benzo[b][1,4]oxazin-3(-4H)-one] was tested, and the Ki (Human recombinant 5-HT1A) was 0.65 nM and the “Ki, Serotonin 5-HT2A” value [1] was 111 nM.
